Source: PMC11878344 (Angewandte Chemie (International Ed. in English), 2025)
Like-named read-outs stand apart in the source and are kept apart here.

What was measured:
[1] = Fluorescence excitation/absorption and emission maxima; format: physicochemical; conditions: PBS pH 7.4
From the text: Figure S8. Fluorescence excitation and emission spectra of the utilized fluorescent reporters in PBS pH 7.4. Spectra l differences between probes carrying the same fluorophore were […]
Table S6. Fluorescence excitation, emission maxima, and Stokes-shift in PBS pH 7.4 for the used fluorophores, respectively. difference s between probes with the same fluorophore were […]
λmax Excitation [nm] λmax Emission [nm] Stokes-shift [nm]
(1 picture or pasted object on this page, not shown here)

[2] = biological target: T1, NanoLuc luciferase MAGL fusion protein in HEK293A cells (Homo sapiens, UniProt Q99685); assay: Cellular MAGL NanoBRET target engagement assay; format: cell-based; conditions: Table 2; mean of three independent measurements ± SD; read-out: HEK 293 nanoBRET IC50±SD
T1 construct: expressed in transfected cells
T1 sequence (Q99685 1-303): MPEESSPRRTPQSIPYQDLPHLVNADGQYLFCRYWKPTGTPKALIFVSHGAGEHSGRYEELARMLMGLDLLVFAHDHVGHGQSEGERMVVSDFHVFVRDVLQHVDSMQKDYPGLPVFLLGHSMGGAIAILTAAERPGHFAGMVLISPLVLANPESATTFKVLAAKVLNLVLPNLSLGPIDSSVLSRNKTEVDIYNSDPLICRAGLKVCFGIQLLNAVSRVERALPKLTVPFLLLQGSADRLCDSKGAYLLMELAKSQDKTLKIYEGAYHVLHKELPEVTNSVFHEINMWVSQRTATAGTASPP
Experimental: We, therefore, confirmed cellular MAGL target engagement in a nanoBRET assay using live HEK293 cells.[39] […] To overcome the low cellular potency of 4, we exploited the modular construction principle to modulate unfavorable physicochemical properties and investigated less polar, privileged head groups[23, 33, 40] (Supporting Information Table S4). […]
This assay was performed as first described before.[39]
Compounds were profiled by a novel cellular MAGL NanoBRET™ Target Engagement assay, which measures the apparent affinity of test compounds by competitive displacement of a Roche-developed Tracer (WO2021058443, Example 21)[21], reversibly bound to a NanoLuc® luciferase MAGL fusion protein in cells.
A HEK293A stable cell line expressing NanoLuc_MAGL was established at Roche and assigned as HEK293A_NanoLuc_MAGL clone #43. A fixed concentration of tracer is added to cells expressing the NanoLuc®_MAGL fusion protein to generate a BRET reporter complex. The introduction of competing compounds results in a dose-dependent decrease in NanoBRET™ energy transfer, which allows quantification of the intracellular affinity of the target protein for the […]
HEK293A_NanoLuc_MAGL clone #43 cells were cultured in DMEM (Gibco 31966) with 10% FBS and 800 ug/ml G418. The NanoBRET assay was performed by seeding 5000 cells/well in Costar low-volume white 384-well plate in assay buffer (1% FBS in HBSS), followed by adding 50 nM final concentration of tracer and serial dilutions of test compounds. After 2 hours of incubation, Nanoluciferase substrates and extracellular inhibitors were added following the manufacturer's protocol (Promega, #N2520), and the NanoBRET signaling were quantified with the Paradigm

human MAGL = biological target: T2, human MAGL (Homo sapiens, UniProt Q99685); assay: In vitro MAGL inhibition assay (2-AG hydrolysis followed by mass spectrometry); format: biochemical
T2 sequence (Q99685 1-303): T1 sequence (Q99685 1-303)
Experimental: (§1) 4. Experimental Details of Biochemical Assays and Crystal Structure
(§2) In Vitro MAGL Inhibition Assay
(§3) Compounds were profiled for MAGL inhibitory activity by determining the enzymatic activity by following the hydrolysis of the natural substrate 2-arachidonoylglycerol (2-AG), resulting in arachidonic acid, which can be followed by mass spectrometry. The 2-AG assay was carried out in 384 well assay plates (PP, Greiner Cat# 784201) in a total volume of 20 µL. Compound dilutions were made in 100% DMSO (VWR Chemicals 23500.297) in a polypropylene plate in 3-fold dilution steps to give a final concentration range in the assay from 12.5 µM to 0.8 pM. 0.25µL compound dilutions (100% DMSO) were added to 9 µL MAGL in assay buffer (50 mM TRIS (GIBCO, 15567-027), 1 mM EDTA (Fluka, 03690-100 mL), 0.01% (v/v) Tween. After shaking, the plate was incubated for 15 min at RT. To start the reaction, 10 µL 2-arachidonoylglycerol in assay buffer was added. The final concentrations in the assay were 50 pM MAGL and 8 µM 2-arachidonoylglyerol. After shaking and 30 min incubation at RT, the reaction was quenched by the addition of 40µL of ACN containing 4 µM of d8-arachidonic acid. The amount of arachidonic acid was traced by an online SPE system (Agilent Rapidfire) coupled to a triple quadrupole mass spectrometer (Agilent 6460). A C18 SPE cartridge (G9205A) was used in an ACN/water liquid setup. The mass spectrometer was operated in negative electrospray mode following the mass transitions 303.1 → 259.1 for arachidonic acid and 311.1 → 267.0 for d8-arachidonic acid. The activity of the compounds was calculated based on the ratio of intensities [arachidonic acid / d8- […]
(§4) This assay was performed as first described before.[39] […]

mouse MAGL = biological target: T3, mouse MAGL (Mus musculus, UniProt O35678); assay: as above; format: biochemical
T3 sequence (O35678 1-303): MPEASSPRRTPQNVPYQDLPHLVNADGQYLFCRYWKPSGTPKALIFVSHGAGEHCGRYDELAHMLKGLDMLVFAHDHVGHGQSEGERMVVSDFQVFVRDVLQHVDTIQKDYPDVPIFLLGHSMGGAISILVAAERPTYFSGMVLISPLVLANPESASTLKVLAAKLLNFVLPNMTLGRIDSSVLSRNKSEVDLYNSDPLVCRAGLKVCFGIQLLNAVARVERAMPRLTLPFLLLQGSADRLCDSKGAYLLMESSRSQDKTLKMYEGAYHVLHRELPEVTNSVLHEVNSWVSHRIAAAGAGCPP
Experimental: as §1, §2, §3, §4

[3] = Table 2, mean of three independent measurements ± SD, read-out: hMAGL IC50±SD
[4] = Table 2, mean of three independent measurements ± SD, read-out: mMAGL IC50±SD

| SMILES | λmax Em (fluorescence emission maximum) [1] | λmax Ex (fluorescence excitation maximum) [1] | IC50 [2] | IC50 (human MAGL; [3]) | IC50 (mouse MAGL; [4]) | IC50 (human MAGL; Supporting Information Tables S1-S5, read-out: IC50 hMAGL) | IC50 (mouse MAGL; Supporting Information Tables S1-S5, read-out: IC50 mMAGL) |
| --- | --- | --- | --- | --- | --- | --- | --- |
| CN(C)c1ccc2c(c1)[Si](C)(C)c1cc(N(C)C)ccc1C21OC(=O)c2ccc(C(=O)NCCCCCOc3ccccc3CC3CC4(C3)CN(C(=O)OC(C(F)(F)F)C(F)(F)F)C4)cc21 (stereo not drawn) [Compound 12] | 673 nm | 654 nm | > 1000 nM | 1.15 ± 0.29 nM | 1.35 ± 0.3 nM |  |  |
| CN(C)c1ccc2c(c1)[Si](C)(C)c1cc(N(C)C)ccc1C21OC(=O)c2ccc(C(=O)NCCCCCOc3ccccc3CC3CC4(C3)CN(C(=O)N3CC5(COC(=O)N5)C3)C4)cc21 (stereo not drawn) [Compound 10] | 673 nm | 654 nm | 285 ± 240 nM | 0.15 ± 0.11 nM | 0.16 ± 0.09 nM | 0.187 nM | 0.155 nM |
